One data set has as its system Cytochrome b5. The data set is described as follows: Cytochrome b5 content in liver microsomes of treated rats. The class given is in vivo. Conditions: rat liver microsomes; oral 2 g/kg APE or 50 mg/kg AND daily for 5 days. The protocol: (§1) Liver was homogenized (1 : 4, w/v) in an ice-cold potassium phosphate buffer (pH 7.4) containing 7.4 mM K2HPO4, 2.6 mM KH2PO4, 1.15% KCl, and 1 mM phenylmethylsulfonyl fluoride (PMSF). Tissue homogenates were centrifuged at 10,000 ×g for 30 min at 4°C. The resulting supernatant was then centrifuged at 105,000 ×g for 1 h at 4°C. The microsomes thus obtained were washed several times to get rid of possible tolbutamide contamination and this can avoid tolbutamide interference of CYP activity, and the microsomes were then suspended in potassium phosphate buffer (pH 7.7) containing 7.5 mM K2HPO4, 14.5 mM KH2PO4, and 1 mM EDTA. […] Metabolites of each CYP enzyme reaction were determined by LC/MS as reported previously. The contents of total CYP and cytochrome b5 were quantified by the method of Omura and Sato [29]. Enzyme activity is expressed as picomoles of metabolite formed per minute per milligram of protein. The NADPH-CYP reductase activity was measured as described by Phillips and Langdon with the use of cytochrome c as the substrate. The microsomal protein concentration was determined by using a Coomassie Plus protein assay kit (Pierce, Rockford, IL, USA).

The nature of data set [1]: Glucose tolerance test after tolbutamide in high-fat diet-induced obese mice. The class given is in vivo, C57BL/6 mice. The protocol:
Eleven-month-old high-fat diet-fed (45% of energy from fat; Research Diet Inc., New Brunswick, NJ) C57BL/6 mice were obtained from the National Health Research Institute (Miaoli, Taiwan). Control mice were orally administered 0.5% methyl cellulose (10 mL/kg). […] After the 5th daily dose, the mice were deprived of food overnight. On day 6, a 20 mg/kg oral dose of tolbutamide, as a solution in Cremophor EL/ethanol/water (30/10/60, v/v/v), was administered to each mouse. Thirty minutes later, a 1 g/kg dose of glucose, as a solution in water, was administered orally according to the method described by Zong et al.. Serial blood samples were collected up to 8 h after the glucose dose from each mouse. The animals were then killed by exsanguination and the livers collected.
Plasma glucose was determined by use of enzymatic kits purchased from Audit Diagnostics Co. (Cork, Ireland). Plasma aspartate aminotransferase (AST) and alanine aminotransferase (ALT) activities were measured by using commercial kits purchased from Randox Laboratories (Antrim, UK).

The test system of data set [2] is CYP1A1, CYP1A2, CYP2C6, CYP2C11, and CYP3A2. In words: RT-PCR of hepatic CYP isozyme mRNA in treated rats. The class given is in vivo. Conditions: rat liver, APE or andrographolide for 5 days. The text has this: Total RNA in liver samples was extracted by using the Trizol reagent (1 : 20, w/v). […] The sequences for the PCR primers were as follows: for CYP1A1 (forward: 5′-[…]-3′; reverse: 5′-[…]-3′), CYP1A2 (forward: 5′-[…]-3′; reverse: 5′-[…]-3′), CYP2C6 (forward: 5′-[…]-3′; reverse: 5′-[…]-3′), CYP2C11 (forward: 5′-[…]-3′; reverse: 5′-[…]-3′), CYP2D1 (forward: 5′-[…]-3′; reverse: 5′-[…]-3′), CYP2E1 (forward: 5′-[…]-3′; reverse: 5′-[…]-3′), CYP3A1 (forward: 5′-[…]-3′; reverse: 5′-[…]-3′), CYP3A2 (forward: 5′-[…]-3′; reverse: 5′-[…]-3′), and P-glycoprotein (forward: 5′-[…]-3′; reverse: 5′-[…]-3′). The PCR for CYP1A1 was performed as follows: 5 min at 95°C and then 35 cycles of 30 s at 94°C, 30 s at 54°C, and 60 s at 72°C. For CYP1A2 and CYP3A2 amplification, the PCR cycle number was 30 times through a 30 s denaturing step at 94°C, a 30 s annealing step at 55°C, and a 30 s elongation step at 72°C. For CYP2D1 and CYP3A1, the PCR cycle number was 30 times through a 60 s denaturing step at 94°C, a 60 s annealing step at 56°C, and a 125 s elongation step at 72°C. […] The PCR amplicons were then electrophoresed in 1% agarose gels containing 40 mM Tris/20 mM glacial acetic acid/2 mM EDTA buffer, and the relative densities of the PCR products were quantitated by use of Image Gauge software (Fujifilm, Tokyo, Japan). […]

Data set [3] relates to UDP-glucuronosyltransferase. The data set is described as follows: Microsomal UGT activity (p-nitrophenol substrate) in liver of treated rats. The class given is in vivo. As to conditions: rat liver; oral 2 g/kg APE or 50 mg/kg AND daily for 5 days. Here is the method: The microsomal UGT activity was determined by using p-nitrophenol as the substrate. The rate of formation of p-nitrophenol glucuronic acid was measured by HPLC/UV [31]. GST activity was determined spectrophotometrically by measuring the formation rate of GSH conjugates.

A further data set has as its system CYP2E1. The data set is described as follows: p-Nitrophenol 6-hydroxylation in liver microsomes of treated rats. The class given is in vivo. As to conditions: rat liver microsomes; oral 2 g/kg APE or 50 mg/kg AND daily for 5 days. The protocol:
as §1
Background: Liver microsomes are a subcellular fraction often used to study metabolism.

The next data set relates to CYP2D. In words: Dextromethorphan O-deethylation in liver microsomes of treated rats. Conditions: rat liver microsomes; oral 2 g/kg APE or 50 mg/kg AND daily for 5 days. The class given is in vivo. The protocol: as §1
The test system of a further data set is CYP3A. The data set is described as follows: Testosterone 6β-hydroxylation in liver microsomes of treated rats. The class given is in vivo. As to conditions: rat liver microsomes; oral 2 g/kg APE or 50 mg/kg AND daily for 5 days. Here is the method: as §1
Setting [4] is: obese mice, 2 g/kg APE or 50 mg/kg AND for 5 days, day 6 tolbutamide 20 mg/kg oral, 30 min later glucose 1 g/kg oral.

Marks after values point to notes of the source that are not given here.

Take `C=C1CC[C@@H]2[C@](C)(CO)[C@H](O)CC[C@@]2(C)[C@@H]1C/C=C1/C(=O)OC[C@H]1O` [andrographolide, Andrographolide]: in the data set on Cytochrome b5, the “Cytochrome b5 content” value is on record as 327 ± 79 pmol/mg protein. The “Hypoglycemic effect of tolbutamide in a glucose tolerance test” value in data set [1] (high-fat diet-induced obese mice treated with APE or andrographolide) was “not changed”. Further, in data set [1] (setting [4]), the “Plasma glucose, time 0 h” value is on record as 80 ± 7^a mg/dL; the “Plasma glucose, time 0.25 h” value is 152 ± 37^a mg/dL; the “Plasma glucose, time 0.5 h” value is recorded as 124 ± 28^ab mg/dL; the “Plasma glucose, time 1 h” value is on record as 99 ± 29 mg/dL. Further, in data set [1] (setting [4]), the “Plasma glucose, time 2 h” value was 88 ± 28 mg/dL; the “Plasma glucose, time 4 h” value is 76 ± 17^a mg/dL; the “Plasma glucose, time 8 h” value is 80 ± 17^a mg/dL. Further, the “Fasting blood glucose level” value in data set [1] (obese mice, APE or andrographolide for 5 days, fasted overnight) is 80 ± 7 mg/dL. In addition, in data set [1] (obese mice, APE or andrographolide for 5 days, then tolbutamide and glucose load), the “Area under the plasma glucose concentration versus time curve (AUC0–8 h)” value was 171 ± 42 mg·h/dL. The “mRNA levels of CYP1A1, CYP1A2, CYP2C6, CYP2C11, and CYP3A2” value in data set [2] is on record as “induced”. The UDP-glucuronosyltransferase activity in data set [3] is listed as 21.1 ± 6.5^a nmol/min/mg protein. Moreover, the “p-Nitrophenol 6-hydroxylase (2E1)” value with CYP2E1 was 91.1 ± 13.0^b pmol/min/mg protein. In addition, the “Dextromethorphan O-deethylase (2D)” value in the data set on CYP2D turned out to be 79.1 ± 30.4 pmol/min/mg protein. In addition, the “Testosterone 6β-hydroxylase (3A)” value in the data set with CYP3A is 1195 ± 284^b pmol/min/mg protein.

The values are drawn from publication PMC3753754, “Andrographis paniculata Extract and Andrographolide Modulate the Hepatic Drug Metabolism System and Plasma Tolbutamide Concentrations in Rats” (Evidence-based Complementary and Alternative Medicine : eCAM, 2013).
